Results on six compounds are retold here after ChEMBL document CHEMBL2413036, “Isoswinholide B and swinholide K, potently cytotoxic dimeric macrolides from Theonella swinhoei” (Bioorg Med Chem, 2013).

What is called IC50 is the point on the concentration scale where inhibition reaches its midpoint. Read a high IC50 as weaker potency.

In assay [1] the test system is HepG2. Description: Antiproliferative activity against human HepG2 cells after 48 hrs by MTT assay. The format is functional, cell-based. As to conditions: HepG2, 48 h. In general terms: Tetrazolium assays rely on reduction of a dye to a coloured formazan, in cell work by metabolically active cells.
Assay [2] relates to HepG2. The experiment in a line: Antiproliferative activity against human HepG2 cells assessed as cell growth inhibition at 100 nM after 48 hrs by MTT assay relative to swinholide-A. The format is functional.

On to `CO[C@H]1C[C@H](CC[C@H](C)[C@H](O)[C@H](C)[C@H]2OC(=O)/C=C/C(C)=C/C[C@H](O)C[C@@H]3C=CC[C@@H](C[C@H](OC)[C@@H](C)[C@@H](O)C[C@@H](O)[C@H](C)[C@@H]([C@@H](C)[C@@H](O)[C@@H](C)CC[C@H]4C[C@H](OC)C[C@H](C)O4)OC(=O)/C=C/C(C)=C/C[C@H](O)C[C@@H]4C=CC[C@@H](C[C@H](O)[C@@H](C)[C@@H](O)C[C@@H](O)[C@@H]2C)O4)O3)O[C@@H](C)C1`, for which the concentration for half-maximal inhibition (IC50) with HepG2 [1] was 30 nM. Moreover, the Efficacy in the assay with HepG2 [2] was 45.35%. Turning to `CO[C@H]1C[C@H](CC[C@H](C)[C@H](O)[C@H](C)[C@@H](O)[C@@H](C)[C@H]2C[C@H](O)[C@H](C)[C@@H](OC)C[C@@H]3CC=C[C@@H](C[C@@H](O)C/C=C(C)/C=C/C(=O)O[C@H]([C@@H](C)[C@@H](O)[C@@H](C)CC[C@H]4C[C@H](OC)C[C@H](C)O4)[C@@H](C)[C@H](O)C[C@H](O)[C@H](C)[C@@H](OC)C[C@@H]4CC=C[C@@H](C[C@@H](O)C/C=C(C)/C=C/C(=O)O2)O4)O3)O[C@@H](C)C1`, the IC50 in the assay on HepG2 [1] came out at 1500 nM. For the same compound, the Efficacy with HepG2 [2] worked out at 7.52%. On to `C=C1/C=C/C(=O)O[C@H]([C@@H](C)[C@@H](O)[C@@H](C)CC[C@H]2C[C@H](OC)C[C@H](C)O2)[C@@H](C)[C@H](O)C[C@H](O)[C@H](C)[C@@H](OC)C[C@@H]2CC=C[C@@H](C[C@@H](O)C/C=C(C)/C=C/C(=O)O[C@H]([C@@H](C)[C@@H](O)[C@@H](C)CC[C@H]3C[C@H](OC)C[C@H](C)O3)[C@@H](C)[C@H](O)C[C@H](O)[C@H](C)[C@@H](OC)C[C@@H]3CC=C[C@@H](C[C@@H](O)C[C@H]1O)O3)O2`, for which the IC50 in the assay with HepG2 [1] turned out to be 15 nM. The Efficacy with HepG2 [2] was determined as 42.67%. In turn, `CO[C@H]1C[C@H](CC[C@H](C)[C@H](O)[C@H](C)[C@H]2OC(=O)/C=C/C(C)=C/C[C@H](O)C[C@@H]3CCC[C@H](C[C@H](OC)[C@@H](C)[C@@H](O)C[C@@H](O)[C@H](C)[C@H](O)[C@@H](C)[C@H]([C@@H](C)CC[C@H]4C[C@H](OC)C[C@H](C)O4)OC(=O)/C=C/C(C)=C/C[C@H](O)C[C@@H]4C=CC[C@H](C[C@H](OC)[C@@H](C)[C@@H](O)C[C@@H](O)[C@@H]2C)O4)O3)O[C@@H](C)C1` [ISOSWINHOLIDE A] had an IC50 with HepG2 [1] of 35 nM. Also, the Efficacy with HepG2 [2] is on record as 16.28%. In turn, `CO[C@@H]1C[C@@H](O)C[C@@H](O)[C@H](C)[C@@H]([C@@H](C)[C@@H](O)[C@@H](C)CC[C@H]2C[C@H](OC)C[C@H](C)O2)OC(=O)/C=C/C(C)=C/C[C@H](O)C[C@@H]2C=CC[C@H](C[C@H](OC)[C@@H](C)[C@@H](O)C[C@@H](O)[C@H](C)[C@@H]([C@@H](C)[C@@H](O)[C@@H](C)CC[C@H]3C[C@H](OC)C[C@H](C)O3)OC(=O)/C=C/C(C)=C/C[C@H](O)C[C@@H]3CCC[C@H](C1)O3)O2` [SWINHOLIDE B] came in with an IC50 in the assay on HepG2 [1] of 25 nM. In addition, the Efficacy in the assay on HepG2 [2] was 89.38%. On to `CO[C@H]1C[C@H](CC[C@H](C)[C@H](O)[C@H](C)[C@H]2OC(=O)/C=C/C(C)=C/C[C@H](O)C[C@@H]3C=CC[C@@H](C[C@H](OC)[C@@H](C)[C@@H](O)C[C@@H](O)[C@H](C)[C@@H]([C@@H](C)[C@@H](O)[C@@H](C)CC[C@H]4C[C@H](OC)C[C@H](C)O4)OC(=O)/C=C/C(C)=C/C[C@H](O)C[C@@H]4C=CC[C@@H](C[C@H](OC)[C@@H](C)[C@@H](O)C[C@@H](O)[C@@H]2C)O4)O3)O[C@@H](C)C1` [Swinholide A], for which inhibition in the assay on HepG2 [1] was half-maximal at 20 nM (IC50).
